# In patent publication US20200246308A1, “SYNERGISTIC COMBINATIONS OF UROLITHINS A AND B FOR IMPROVING COGNITIVE CAPACITY OR COGNITIVE FUNCTION” (Natreon, Inc., priority 2018, published 2020):
# “Also recorded” adds a separate entry of the source.
# Legend:
# [1] = biological target: T1, Human recombinant AChE (Homo sapiens, UniProt P22303); assay: In-vitro human recombinant AChE inhibition assay, Ellman method; assay type: biochemical; conditions: Table 10
# T1 construct: purchased Sigma Aldrich
# From the text: In-vitro human recombinant AChE inhibition assay: Procedure described by Ellman et al. was used after some modification for AChE inhibition assay. Human recombinant AChE was purchased from Sigma Aldrich (St. Louis, Mo.). Acetylthiocholine iodide (ATCI), 5,5′-dithiobis (2-nitrobenzoic acid) (DTNB-Ellman's reagent) were purchased from Himedia Pvt. Ltd. (New Delhi, India). Donepezil was used as positive control groups. Tris-HCl buffer (pH 8) was used to perform the in-vitro assay.
# Further, substrate i.e. ATCI (15 mM, 30 μL) was added and it was incubated for additional 30 min. Finally 160 μL (1.5 mM) of DTNB was added and the absorbance was recorded at 415 nm using Epoch microplate reader (BioTek). The IC50 value was calculated using absorbance obtained from the test and standard compounds. The assay was performed in triplicate and in three independent runs (see Equation 1).
# [2] = tested on: acetylcholine (ACh) level in HIP tissue; assay: Acetylcholine level in hippocampal tissue, Amplex Red kit (Example 9D); assay type: in vivo, Male Wistar rats; conditions: p.o. 7 days: B 50, A 50, Donepezil 3, B:A 10:50 and 50:50, Shilajit 50 mg/kg
# Experimental: Drug solution was freshly prepared in 0.3% CMC and administered by oral gavage once a day, for a period of 7 days. Briefly, the whole experiment was conducted for 8 days. Scopolamine (1 mg/kg), a muscarinic receptor antagonist, was dissolved in normal saline (0.9% NaCl) and administered intraperitoneally 1 h after drugs administration on seventh day.
# Sample preparation: The animals were killed by decapitation and the brain tissues were dissected out in ice-cold conditions and stored at −80° C. until use. Tissue was homogenized in 1.0 ml of 0.1M perchloric acid with a Potter-Elvehjem homogenizer. The homogenate was kept in the polypropylene tubes for 15 min after which 40 μl of 4M potassium acetate was added to adjust the pH to 4.0 followed by centrifugation for 15 min at 4000×g. Supernatant was used to estimate acetylcholine and AChE activities.
# Samples were prepared as in Example 9C. The amount of acetylcholine in brain tissues was measured using Amplex red assay kit (Molecular Probes, Inc., USA). An acetylcholine standard curve was used in each experiment. Briefly, the reactions are initiated by adding 0.1 ml of control (10 μM H2O2) and tissue homogenates were taken in two separate polypropylene tubes and then 0.1 ml working solution of 400 μM Amplex Red reagent containing 2 U/mL HRP, 0.2 U/mL choline oxidase and 1 U/mL acetylcholinesterase were added to each tube. After incubation for 45 min, the fluorescence was recorded with the help of spectrofluorometer at 530 nm excitation and 590 nm emission wavelengths. The protein content was determined using standard protocol (Lowry, et al., 1951).
# Statistical analyses: The results were expressed as means±Standard Error mean (SEM). The intergroup variation was measured by one-way ANOVA followed by Student-Newman-Keuls test. Two-way followed by Bonferroni test was employed to discover the intergroup variation in Y maze test considering groups and arms as two independent variables. Statistical analysis was done by using Graph Pad prism version 5 (San Diego, Calif.). A level of p<0.05 was accepted as statistically significant.
# [3] = tested on: cortical brain mitochondria; assay: Mitochondrial respiration and respiratory control ratio (RCR) of isolated brain cortex mitochondria after 21 days treatment; conditions: for Respiratory control ratio (RCR): old mice (18 to 20 month), 50 mg/kg p.o.; for Respiratory control ratio (RCR) / Mitochondrial respiration in all states: 21 days; for State II respiratory rate / Mitochondrial respiration in all states: 50 mg/kg; for Mitochondrial respiration in all states: young and old mice, vs respective normal control; for Respiratory rate at state V (complex I): FCCP
# Experimental: Briefly the mitochondria were added to the chamber and respiratory states were evaluated by suitable substrates and inhibitors. Purified mitochondrial protein was suspended in respiration buffer in a final volume of 250 μL. State II respiration was initiated by addition of Pyruvate/Malate (P/M), with basal rate of respiration. […] State IV was measured by addition of oligomycin. The respiration returns to basal rate since the ATP synthase is shut down and no electrons are allowed to return to the matrix. The electron transport chain (ETC) continues only to maintain mitochondrial membrane potential due to loss of protons back into the matrix. State V was measured by addition of FCCP. This represents the maximum rate of respiration, causing uncoupling of the ETC to ATP synthesis, and allows protons to rush back into the matrix. Rotenone was then added to shut down complex I-driven respiration. State V (succinate) was determined by addition of succinate. This is the maximum rate of respiration via complex II, since FCCP is present in the system.
# [4] = biological target: T1, Human recombinant AChE; assay: In-vitro human recombinant AChE inhibition assay, Amplex Red kit method; assay type: biochemical; conditions: Table 11
# Experimental: In-vitro human recombinant AChE inhibition assay by Amplex Red kit method: The anticholinesterase activity of experimental drugs was measured by using Amplex red assay kit (Molecular Probes, Inc., USA). Fluorescence assay used for the screen of Human AChE activity in the presence of each experimental drug from a commercially available kit (Amplex Red, Invitrogen, Thermo Fisher Scientific, Waltham, Mass.). Acetylcholine, the product of AChE catalysis, was converted to a fluorescent called resorufin by the addition of a series of kit enzymes, including Choline oxidase (CO), horseradish peroxidase (HRP), and the fluorogenic substrate Amplex Red. As the fluorescent molecule resorufin is dependent on acetylcholine production and acetylcholine production is the product of AChE catalysis, the rate of change in fluorescence is a measurement of AChE activity. […] The following procedure is designed for use with a fluorescence multi-well plate scanner. […]
# Positive control wells, representing 100% Human recombinant AChE activity (0% human-AChE inhibition), contained, Acetylcholine, and Amplex Red solution. […] Fluorescence measurements were taken at baseline (immediately after substrate was added to each well), and after a 60-minute incubation at 37° C. The fluorescence micro-plate reader was measured using excitation in the range of 530-560 nm and emission detected at 590 nm. […]
# [5] = tested on: scopolamine induced amnesic rat model; assay: Passive avoidance test, scopolamine induced amnesic rat model (Example 9B); assay type: in vivo, Male Wistar rats; conditions: p.o. 7 days: B 50, A 50, B:A 10:50 and 50:50 mg/kg, Shilajit 25 mg/kg b.i.d; scopolamine 1 mg/kg i.p.
# Experimental: The experiment was conducted in accordance with the Principles of laboratory animal care. Male Wistar rats (200-250 g) were purchased from the Central Animal House, Institute of Medical Sciences, Banaras Hindu University (BHU), Varanasi, India. Experiments on animals were approved by the Institutional Animal Ethics Committee of BHU, Varanasi, India. The animals were housed in polypropylene cages under controlled environmental conditions of temperature of 25±1° C. and 45-55% relative humidity and a 12:12 h light/dark cycle. The experimental animals had free access to commercial rat feed and water ad libitum during the experiment. Animals were acclimatized for at least one week before using them for experiments and exposed only once to the experiment.
# Rats were randomly allocated into eight study groups containing six in each group (n=6), as follows:
# Drug solution was freshly prepared in 0.3% CMC and administered by oral gavage once a day, for a period of 7 days. Briefly, the whole experiment was conducted for 8 days. […]
# Passive avoidance (PA) test: The PA task is a fear-aggravated test used to evaluate learning and memory in rodent models of CNS disorders. […] The transfer of the animal from one compartment to another was recorded and transfer latency time (TLT) was calculated in seconds. […]
# T1 sequence (P22303 32-614): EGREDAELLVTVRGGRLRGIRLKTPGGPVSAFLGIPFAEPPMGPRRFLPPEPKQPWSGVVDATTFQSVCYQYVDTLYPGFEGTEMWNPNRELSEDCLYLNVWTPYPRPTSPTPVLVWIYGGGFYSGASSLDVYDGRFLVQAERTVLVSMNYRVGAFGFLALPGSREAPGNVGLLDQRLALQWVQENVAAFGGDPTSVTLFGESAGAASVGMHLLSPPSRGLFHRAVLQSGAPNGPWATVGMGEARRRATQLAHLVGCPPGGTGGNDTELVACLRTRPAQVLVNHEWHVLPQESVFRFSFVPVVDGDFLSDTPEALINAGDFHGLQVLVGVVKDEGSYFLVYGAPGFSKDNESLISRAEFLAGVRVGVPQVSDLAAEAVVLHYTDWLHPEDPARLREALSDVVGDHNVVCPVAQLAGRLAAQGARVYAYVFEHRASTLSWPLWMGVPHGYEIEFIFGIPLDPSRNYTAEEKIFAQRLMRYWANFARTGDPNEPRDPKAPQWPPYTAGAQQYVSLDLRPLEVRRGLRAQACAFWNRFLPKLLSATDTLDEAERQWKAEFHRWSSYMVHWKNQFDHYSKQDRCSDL
Compound,IC50 [1] [µg/mL],Scopolamine-induced decrease in ACh level in HIP tissue [2],Respiratory control ratio (RCR) ([3]; vs old control),"State II respiratory rate ([3]; old mice, vs old control)",Mitochondrial respiration in all states [3],"State II respiratory rate ([3]; young mice, vs young control)",Respiratory rate at state V (complex I) ([3]; young mice),IC50 [4] [µg/mL],"Transfer latency time (TLT), retention trial vs acquisition trial [5]"
"O=c1oc2cc(O)ccc2c2ccc(O)cc12 [Urolithin A, 3,8-dihydroxy-dibenzo-alpha-pyrone]",410.50 ± 38.52,attenuated the scopolamine induced decrease in ACh level,significantly increased the RCR,found to be increased,significantly increased mitochondrial respiration,significant increases in respiratory rate,significantly found to be increased,528.00 ± 70.71,significant increase in TLT of retention trial in comparison to acquisition trial but less effective as compared to the vehicle treated group
"O=c1oc2cc(O)ccc2c2ccccc12 [Urolithin B, 3-hydroxy-dibenzo-alpha-pyrone]",272.67 ± 42.11,attenuated the scopolamine induced decrease in ACh level,significantly increased the RCR,found to be increased,significantly increased mitochondrial respiration,significant increases in respiratory rate,significantly found to be increased; also recorded: less effect,412.00 ± 28.28,significant increase in TLT of retention trial in comparison to acquisition trial but less effective as compared to the vehicle treated group
